Reference: patent US20250212873A1, “VOLATILE HDAC INHIBITORS FOR THERAPEUTIC AND PLANT APPLICATIONS” (The Regents of the University of California, priority 2022, published 2025)
“Also recorded” adds a separate entry of the source. Structures can show the parent of a compound that is named as a salt.

How the values were obtained:
[1] = tested on: Arabidopsis thaliana seedlings; experiment: Odor Exposure assay, Arabidopsis thaliana seedlings (root and leaf development); type: in vivo; conditions: for lateral root growth (number of lateral roots) / leaf development (number of large / true leaves) / root growth (primary root length): 7-day exposure; for lateral root growth (number of lateral roots) / leaf development (number of large / true leaves) / root growth: headspace of 1% v/v in Paraffin oil; for root growth (primary root length): headspace of solution in Paraffin oil; for root growth: 3.5-day exposure
Protocol: The Odor Exposure assay consists of controlled exposure of volatile odor compounds to model plant Arabidopsis within enclosed aquariums and similar growth conditions (23° C. with a 12-hour light/dark cycle). For Arabidopsis, seedlings were aligned on agar plates for growth after a 4-day cold treatment process. The agar plates with seedlings were then placed in enclosed aquariums with moist paper towels soaked in 10 ml of DI water for humidity. The plates were placed along the wall, approximately 12 cm from odor dispensers which resided in the center of the glass tank.
The test compound odor dispensers, consisting of (60×15 mm) polystyrene Petri dishes containing 2 ml of 1% v/v in PO, are replaced at the 3.5, 5, and 6-day time mark during the 7-day experiment. Root growth is marked during each time mark and the plates were imaged. The plants are to be collected after the 7-day exposure, photographed, and the leaves/roots carefully dissected separated, flash frozen in liquid nitrogen, and preserved for future sequencing. Root growth is measured using ImageJ.
In order to study the physiological effects of long-term exposure to microbial volatiles the model system Arabidopsis was exposed for […] to diacetyl, a volatile chemical emitted by fermentation by yeast or microbial degradation in the soil associated with roots (R. J. Morcillo et al., EMBO J 39, e102602 (2020); M. A. Farag, et al., Phytochemistry 67, 2262-2268 (2006); and C. M. Ryu et al., P Natl Acad Sci USA 100, 4927-4932 (2003). The Odor Exposure assay consisted of controlled exposure of volatile HDAC inhibiting compounds to model plant Arabidopsis within enclosed aquariums and similar growth conditions. The test compound odor cartridges, consisting of 60×15 mm polystyrene Petri dishes containing 2 ml of indicated concentration in Paraffin Oil, were replaced at the 3.5, 5, and 6-day time mark during the 7-day experiment (FIG. 1A, left). In separate experiments the weight loss from the odor cartridges over time was measured and used it to calculate the concentration of diacetyl in the glass chambers in parts per million (FIG. 1A, right).
In order to directly evaluate whether exposure to vapors of the four HDAC-inhibitory VOCs affect root development, we performed a set of experiments using A. thaliana seedlings as before. Solutions for each of the four chemicals on a small petri dish were placed away from the seedlings growing in agar plate and enclosed in glass tank. The Root tips were marked at specified days post treatment start and photographs analyzed. The plants were collected after the 7-day exposure, photographed, and the roots were separated. Detailed measurements were made from the photos using ImageJ and the root length and numbers of lateral roots quantified at day 3.5 and day 7 after start if the treatment (FIG. 1B).
The Odor Exposure assay consists of controlled exposure of volatile odor compounds to model plant Arabidopsis within enclosed aquariums and similar growth conditions (23° C. with a 12-hour light/dark cycle). The test compound odor cartridges, consisting of (60×15 mm) polystyrene Petri dishes containing 2 ml of 1% v/v in paraffin oil (PO), were replaced at the 3.5, 5, and 6-day time mark during the 7-day experiment. Root growth was marked during each time point and the plates were imaged. Numbers of true leaves were also counted. The plants are to be collected after the 7-day exposure, photographed, and the leaves/roots carefully dissected separated, flash frozen in liquid nitrogen, and preserved for future sequencing. Root growth is measured using ImageJ.

[2] = tested on: A. thaliana plants (Col-0); experiment: Flowering assay; type: in vivo, Arabidopsis thaliana; conditions: vapors from 0.1% solution
From the text: Dramatic effects of VOCs have been seen in the seedling stage. The effects on with flowering timing were observed, since the process involves numerous changes in gene expression and therefore potentially susceptible to HDAC inhibitory volatiles. Mutants in HDACs like HDA5 show delayed flowering due to upregulation of flowering repressor genes like FLC and MAF1 (M. Luo et al., Plant J 82, 925-936 (2015)). Conversely, mutants in HDA9lead to early flowering due to increased expression of FLOWERING LOCUS T (FT) and AGAMOUS-LIKE 19 (AGL19) (M. J. Kang, et al., New Phytol 206, 281-294 (2015)). We placed 3 weeks old A. thaliana plants in the glass chambers and exposed them to the vapors of two of the VOCs, diacetyl and α-angelica lactone volatilizing from 0.1% solutions in the glass chamber.
Twenty-seven day old A. thaliana plants (Col-0), that had been transplanted at day 7 to soil, were placed in 10-gallon glass aquarium as chamber along with a petridish containing 2 ml of chemical dissolved in PO or PO alone were placed at the other side of the container. Plants were exposed to odors until all plants began to flower, with odor cartridges being replaced daily. Signs of flower buds opening were counted as plant flowering. One-way analysis of Variance (ANOVA) between groups was performed for plant exposure quantitative data using Graph Pad Prism 9.

[3] = tested on: Class I and Class II HDACs; experiment: In vitro assays with purified human Class I and II HDACs (panel statements); type: biochemical; conditions: 15 mM
Protocol: Presented are data for selected compounds that act as Histone deacetylase inhibitors in vitro or HDAC inhibitors. 26 compounds were screened against purified human HDACs.
HDAC activity of class I HDACs (HDAC1 and 3) was measured with the fluorometric HDAC Activity Assay kit: HDAC1 (10011563, Cayman Chemical, Ann Arbor, MI) and HDAC3 (50073 BPS Bioscience, San Diego, CA), according to the manufacturer's instructions. HDAC activity of class II HDACs (HDAC4 and HDAC6) was measured with the fluorometric HDAC Activity Assay kit: HDAC4, […] (50064 and 50076, BPS Bioscience, San Diego, CA), according to the manufacturer's instructions. All compounds were tested in single dose duplicate mode at 15 mM concentrations in 1% DMSO, based on the IC50 of 2,3-butanedione established in earlier work. Due to interference, concentrations of >30 mM were not used in the IC50 calculation. To account for any interference at lower concentrations, all baseline measurements of blank wells (no HDAC enzyme) were performed and subtracted with the various concentrations of 2,3-butanedione.
Diacetyl and 3 structurally related VOCs were evaluated using in vitro assay kits for measuring activity of four purified HDACs. Of the four VOCs), each has a different functional group, two are natural in origin, previously detected from microbes that are known to be present in soil (M. C. Lemfack et al., Nucleic Acids Res 46, D1261-D1265 (2018); and R. H. Cagan, W. N. Zeiger, Proc. Nat. Acad. Sci. U.S.A. 75, 4679-4683 (1978)) and two that are not (α-angelica lactone and ethyl pyruvate). […] All 4 VOCs inhibited both Class I HDACs (L. L. Walling, The Myriad Plant Responses to Herbivores. J Plant Growth Regul 19, 195-216 (2000); and M. Heil, R. Karban, Trends Ecol Evol 25, 137-144 (2010)) and the Class II HDAC6 with differences in degree (FIG. 2A,B).

[4] = tested on: bacteria and fungi; conditions: literature (Debebe et al.); cited from earlier work
[5] = tested on: SH-SY5Y Cancer cell line; experiment: Cancer cell viability assay, SH-SY5Y; type: cell-based; conditions: 33 micro-molar
Protocol: (§1) Cells were maintained in a 37° C. incubator with 5% CO2 throughout the experiment. Compound stocks were dissolved in 10% DMSO, but final concentrations were made fresh in complete media as needed. 10% DMSO solvent was used as control in complete media. Cells were seeded onto 12-well plates and allowed 12-24 hours until treatment began to allow cells to adhere to wells. This was followed by minimum 5-day treatment of compounds, changing the media with treatment every 48 hours. Cell lines A549, PC3, and SK-MEL-5 were seeded at 8000 cells/well which would provide 80-100% confluency after 6-day growth. SH-SY5Y was seeded at 8000 cells/well then 16,000 cells/well due to slower growth and given at least 10 days for sufficient growth. After allotted growth times, cell counts were performed via Countess™ automated cell counter. All assays were completed with a minimum of triplicate replicates for all conditions and analyzed through GraphPad Prism One-way ANOVA for significance.

[6] = tested on: PC3 Cancer cell line; experiment: Cancer cell viability assay, PC3; type: cell-based; conditions: 33 uM, triplicates
Protocol: as §1

[7] = tested on: A. thaliana plants (Col-0); experiment: Weed killing assay; type: in vivo, Arabidopsis thaliana; conditions: 1% (volume/volume) in PO, 7 days vapor exposure, 4 weeks recovery
From the text: Since large scale changes in gene expression occur it is presumed that higher doses of some of the compounds could negatively affect some plants, even causing death. Since Arabidopsis thaliana is also considered a type of weed and goes by the common name Thale cress, it was used as a model to test the weed killing potential at higher doses. In order to evaluate the activity of some of these volatiles in plant killing twenty-seven day old A. thaliana plants (Col-0), that had been transplanted at day 7 to soil, were placed in 10-gallon glass aquarium as chamber along with a petridish containing 2 ml of chemical dissolved in PO at 1% (volume/volume) or PO alone were placed at the other side of the container. Plants were exposed to odor vapors for 7 days and observed for death.
Twenty-seven day old A. thaliana plants (Col-0), that had been transplanted at day 7 to soil, were placed in 10-gallon glass aquarium as chamber along with a petridish containing 2 ml of chemical dissolved in PO at 1% (volume/volume) or PO alone were placed at the other side of the container. Plants were exposed to odor vapors for 7 days and observed for death.

[8] = tested on: histone deacetylase enzymes (HDACs); conditions: literature (Shimazu et al.); cited from earlier work
[9] = listed as Alpha angelica lactone

CCC(=O)C(=O)CC [3,4-hexanedione]
lateral root growth (number of lateral roots) [1]: significant phenotypic changes; also recorded: promoted lateral root growth | leaf development (number of large / true leaves) [1]: changes in the number of true leaf development/growth; also recorded: significant increase; also recorded: significant phenotypic changes; also recorded: The trend for the compounds were to inhibit leave development, except for 3,4-hexanedione | root growth (primary root length) [1]: all the compounds except 3,4-hexanedione demonstrated significant root growth inhibition

CC1=CCC(=O)O1 [alpha angelica lactone]
root growth [1]: significant root growth inhibition | lateral root growth (number of lateral roots) [1, 9]: significant phenotypic changes; also recorded: promoted lateral root growth | leaf development (number of large / true leaves) [1, 9]: significant phenotypic changes | leaf development (number of large / true leaves) ([1]; listed as a-angelica lactone): significant decreases | leaf development (number of large / true leaves) ([1]; listed as α-Angelica lactone): changes in the number of true leaf development/growth | delay in flowering (in words) [2]: approximately a week | inhibition of Class II HDACs compared with Class I [3]: inhibits only Class 2 HDACs strongly | inhibition of Class II HDACs compared with Class I ([3]; listed as α-angelica lactone): inhibited Class II HDACs more strongly than Class I

CCOC(=O)C(C)=O [ethyl pyruvate]
root growth [1]: significant root growth inhibition | lateral root growth (number of lateral roots) [1]: inhibition; also recorded: significant phenotypic changes | lateral root growth (number of lateral roots) ([1]; listed as Ethyl pyruvate): inhibited | root growth (primary root length) [1]: inhibited | antimicrobial action on bacteria and fungi [4]: potent antimicrobial | changes in proliferation, SH-SY5Y [5]: Significant changes in proliferations were noted only for 33 micro molar 2,3-butanedione treatment | changes in proliferation, PC3 [6]: No Significant changes in proliferations

CCCOC=O [propyl formate]
plants killed (dead) [7]: 7 of 8 | changes in proliferation, SH-SY5Y [5]: Significant changes in proliferations were noted only for 33 micro molar 2,3-butanedione treatment | changes in proliferation, PC3 [6]: No Significant changes in proliferations

CC(O)CC(=O)O (stereo not drawn) [β-hydroxybutyrate]
inhibition of histone deacetylase enzymes (HDACs) [8]: known inhibitor
